Assay results from patent publication USRE34313E, “Pharmaceutical compositions” (priority 1983, dated 1993).
Like-named read-outs stand apart in the source and are kept apart here.

Experiments:
[1] = tested on: Apotransferrin; test: Ability of iron complexes to donate iron to apotransferrin; assay type: biochemical; settings: complex 10^-4 M, apotransferrin 10^-4 M, tris hydrochloride pH 7.4, 37° C., 10 minutes
Description: Apotransferrin (10^-4 M) and the iron complex of 1-hydroxy-4-methoxypyrid-4-one (10^-4 M; prepared as described in Example 7) were incubated together in tris hydrochloride (50 mM, buffered to pH 7.4) at 37° C. for 10 minutes when a 1 ml aliquot was removed from the medium and added to a PD10 colum. 0.5 ml fractions were collected directly into scintillation vials for counting.

[2] = tested on: Human transferrin; test: Mobilisation of iron from transferrin; assay type: biochemical; settings: 4×10^-3 M compound, 59Fe(III) transferrin 10^-5 M; for Percentage of iron removed from transferrin, 6 hours: tris HCl pH 7.4, 6 hours; for Percentage of iron removed from transferrin, 24 hours: tris HCl pH 7.4, 24 hours
Description: The solution was then dialysed against phosphate buffered saline for 24 hours. The ^59 Fe remaining in the dialysis tube was then […]. For comparative purposes, this procedure was repeated with desferrioxamine and EDTA.

[3] = tested on: Mice; test: In vivo test of iron binding capacity: excretion of 59Fe in iron-loaded mice; settings: control = 100% excretion
Description: Mice were injected intraperitoneally with iron dextran (2 mg) at weekly intervals over a four week period. Two weeks after the final injection, the mice were injected via the tail vein with ^59 Fe Lactoferrin (human lactoferrin, 1 mg per injection 2 μCi). The mice were then caged individually. After a ten day period, 1,4-hydroxypyrid-2-one was administered to groups of 8 mice at 10 mg per mouse either intraperitoneally or intragastrically (in each case 3 of the mice received only one dose whilst 5 received 2 doses at a 24 hour interval). The excretion of iron was recorded at either 12 or 24 hourly intervals over a three day period before and a two day period after administration of the compound. For comparative purposes, the procedure was repeated with a blank control and with desferrioxamine, also at 10 mg per mouse (the intraperitoneally treated mice receiving one dose of desferrioxamine and the intragastrically treated mice two doses at a 24 hour interval).
The results are shown in Table 4, being given on the basis of the control representing 100% excretion, and illustrate the particular advantage of the pyridones as compared with desferrioxamine for oral administration. […] However, this is not the case here, the large SD values being a consequence of the large range among the positive responses.

[4] = physchem; settings: pH 7.4; for Partition coefficient Kpart, Iron complex [FeIII-(compound)3]: 100 uM; for logD at 100 µM: tris hydrochloride 20 mm
Description: Acid washed glassware is used throughout and, following mixing of 5 ml of the 10^-4 M aqueous solution with 5 ml n-octanol for 1 minute, the aqueous n-octanol mixture is centrifuged at 1,000 g for 30 seconds. The two resulting phases are separated for a concentration determination by spectrophotometry on each. For the free hydroxypyridones, the range 220-340 nm is used for concentration determinations whilst for the iron complexes, the range […] is used.

[5] = log Ksol, affinity for iron(III); assay type: physicochemical
Description: In order to solubilise iron(III) hydroxide, log Ksol must be greater than 0 and in order to remove iron from transferrin, log Ksol should be in excess of 6.0.

[6] = tested on: Horse spleen ferritin; test: Mobilisation of iron from ferritin; assay type: biochemical; settings: 3×10^-3 M pyridone, ferritin 10^-6 M, pH 7.4, dialysis
Description: Horse spleen ferritin (Sigma) was without further purification and its iron content was estimated spectrophotometrically at 420 nm. The ferritin solution in phosphate buffered saline (Dulbecco-OXOID, 10^-6 M, pH 7.4) was enclosed in a Visking dialysis tube and dialysed against a 3×10^-3 M buffered solution of one of various pyridones as indicated in Table 2. The absorption spectrum of the resulting iron(III) complex in the dialysis solution was recorded after 6 and 24 hours. For comparative purposes, the procedure was repeated using a blank control.

[7] = tested on: Horse spleen ferritin; settings: cited from earlier work
[8] = tested on: inverted rat jejunal sac; test: In vitro permeation of rat jejunal sac by iron complexes; settings: uptake into serosal space of everted rat jejunal sac, 37° C., up to 1 hour, relative to ferric chloride as 1
Description: The iron uptake into the serosal space of the inverted rat jejunal sac was compared for various iron compounds. Rats (male Sprague Dawley, 60 g) were killed and the jejunum removed, everted and cut into three segments (4 cm length). The segments were tied at both ends and filled with Krebs Ringer buffer (0.2 ml) and incubated in Krebs Ringer buffer containing ^59 Fe complexes at 37° C. for periods up to 1 hour. The contents of the sac were counted for ^59 Fe and measured spectrophotometrically.

Compound | Percentage of iron removed from transferrin, 6 hours [2] | Percentage of iron removed from transferrin, 24 hours [2] | Partition coefficient Kpart, Iron complex [FeIII-(compound)3] [4] | logD at 100 µM [4] | log Ksol [5] | Percentage of iron removed from ferritin, 6 hours [6] | Percentage of iron removed from ferritin, 24 hours [6] | also measured
COc1ccn([O-])c(=O)c1.COc1ccn([O-])c(=O)c1.COc1ccn([O-])c(=O)c1.[Fe+3] |  |  |  |  |  |  |  | iron removed from the iron complex (donated to apotransferrin) [1]: over 90%
O=c1cc(O)ccn1O [1,4-dihydroxypyrid-2-one] | 80% | 91% | 0.04 | -1.4 | 9.9 | 22% | 54% | Excretion of 59Fe ± SD, Intraperitoneal Administration ([3]; 10 mg per mouse i.p.): 195 ± 57%; Excretion of 59Fe ± SD, Intragastric Administration ([3]; 10 mg per mouse intragastrically): 166 ± 40%
COCCOc1ccn(O)c(=O)c1 [1-hydroxy-4-(2'-methoxyethoxy)-pyrid-2-one] | 72% | 75% | 0.6 | -0.854 |  | 2% | 8% | 
COc1ccn(O)c(=O)c1 [1-hydroxy-4-methoxypyrid-2-one] | 70% | 71% | 4.85 | -0.824 | 11.3 | 13% | 46% | 
CC(=O)N(O)CCCCCNC(=O)CCC(=O)N(O)CCCCCNC(=O)CCC(=O)N(O)CCCCCN [Desferrioxamine, desferrioxamine, reference compound] | 17% | 22% |  |  | 6.0 |  |  | Percentage of iron removed from ferritin, 6 hours ([7]; 1 mM desferrioxamine, similar test from literature (Crichton et al)): 1.5%
O=C(O)CN(CCN(CC(=O)O)CC(=O)O)CC(=O)O [EDTA, ethylenediamine tetra-acetic acid, reference compound] | 27% | 67% |  |  |  |  |  | 
[Cl][Fe]([Cl])[Cl] [FeCl3, ferric chloride] |  |  |  |  |  |  |  | Relative Iron Uptake [8]: 1
O=C([O-])[C@H](O)[C@@H](O)[C@H](O)[C@H](O)CO.O=C([O-])[C@H](O)[C@@H](O)[C@H](O)[C@H](O)CO.[Fe+2] [Fe^II gluconate] |  |  |  |  |  |  |  | Relative Iron Uptake [8]: 1.6
O=C(NCCCCN(CCCNC(=O)c1cc(S(=O)(=O)O)cc(O)c1O)C(=O)c1cc(S(=O)(=O)O)cc(O)c1O)c1cc(S(=O)(=O)O)cc(O)c1O [LICAMS] |  |  |  |  |  |  |  | Percentage of iron removed from ferritin, 6 hours ([7]; 6 mM LICAMS + 12 mM ascorbic acid, similar test from literature (Tufano et al)): 7%
O=C(O)CN(CCN(CC(=O)O)CC(=O)O)CCN(CC(=O)O)CC(=O)O [diethylenetriamine pentaacetic acid, reference compound] |  |  |  |  | 2.0 |  |  | 
